# Laboratory results taken from patent US20240208940A1, “SMALL-MOLECULE INHIBITORS FOR BETA-CATENIN/BCELL LYMPHOMA 9 PROTEIN-PROTEIN INTERACTION” (H. LEE MOFFITT CANCER CENTER AND RESEARCH INSTITUTE, INC., priority 2021, published 2024).
# Structures can show the parent of a compound that is named as a salt.
# Target: β-catenin/BCL9 PPI (Homo sapiens (Human), UniProt P35222)
# Test: AlphaScreen competitive inhibition assay of β-catenin/BCL9 PPI
# Assay type: binding
# Settings: mean ± standard deviation (n = 3); for Ki: derived from IC50, read-out: Ki ± SD
# Experimental: AlphaScreen Assays of β-Catenin and BCL9 Interaction. Experiments were performed in white opaque 384-well plates from PerkinElmer (Waltham, MA), and the samples were read on a Biotek Synergy 2 plate reader (Winooski, VT) with excitation at 680 nm and emission at 570 nm. The standard AlphaScreen protocol was used with a sensitivity setting of 200. All dilutions were made in 1× assay buffer containing 25 mM Hepes (pH 7.4), 100 mM NaCl, 0.01% Triton X-100 and 0.1% BSA to minimize nonspecific interactions. For the competitive inhibition assays of β-catenin/BCL9 PPI, the negative control (equivalent to 0% inhibition) refers to 5.0 nM biotinylated BCL9, 50 nM His6-tagged β-catenin, and 10 μg/mL donor and acceptor beads in a final volume of 25 μL assay buffer, but no tested inhibitor present. The positive control (equivalent to 100% inhibition) refers to 5.0 nM biotinylated BCL9 and 10 μg/mL donor and acceptor beads in a final volume of 25 μL assay buffer.
# For the β-catenin/BCL9 assay, 5 nM biotinylated BCL9 and 50 nM His6-tagged β-catenin were incubated in assay buffer for 30 min. Different concentrations of the tested inhibitor were added and incubated in 20 μL assay buffer for another 1 h. All of the assay plates were covered and gently mixed on an orbital shaker. The donor and acceptor beads were then added to the plates to a final concentration of 10 μg/mL in 25 μL assay buffer. The mixture was incubated for 1 h before detection. The IC50 value was determined by nonlinear least-square analysis of GraphPad Prism 8.0. The Ki values were derived from the IC50 values using a method reported by Wang and coworkers.^65 The equation used is Ki=[I]50/([L]50/Kd+[P]0/Kd+1) (Where [I]50 denotes the concentration of the free inhibitor at 50% inhibition, [L]50 is the concentration of the free labeled ligand at 50% inhibition, [P]0 is the concentration of the free protein at 0% inhibition, and Kd is the dissociation constant of the protein-ligand complex). All of the experiments were performed in triplicate and carried out in the presence of 1% DMSO for small-molecule inhibitors. Each compound was assayed at least by three independent experiments. The results were expressed as mean±standard deviation.
# Sequence of β-catenin/BCL9 PPI (P35222 whole entry): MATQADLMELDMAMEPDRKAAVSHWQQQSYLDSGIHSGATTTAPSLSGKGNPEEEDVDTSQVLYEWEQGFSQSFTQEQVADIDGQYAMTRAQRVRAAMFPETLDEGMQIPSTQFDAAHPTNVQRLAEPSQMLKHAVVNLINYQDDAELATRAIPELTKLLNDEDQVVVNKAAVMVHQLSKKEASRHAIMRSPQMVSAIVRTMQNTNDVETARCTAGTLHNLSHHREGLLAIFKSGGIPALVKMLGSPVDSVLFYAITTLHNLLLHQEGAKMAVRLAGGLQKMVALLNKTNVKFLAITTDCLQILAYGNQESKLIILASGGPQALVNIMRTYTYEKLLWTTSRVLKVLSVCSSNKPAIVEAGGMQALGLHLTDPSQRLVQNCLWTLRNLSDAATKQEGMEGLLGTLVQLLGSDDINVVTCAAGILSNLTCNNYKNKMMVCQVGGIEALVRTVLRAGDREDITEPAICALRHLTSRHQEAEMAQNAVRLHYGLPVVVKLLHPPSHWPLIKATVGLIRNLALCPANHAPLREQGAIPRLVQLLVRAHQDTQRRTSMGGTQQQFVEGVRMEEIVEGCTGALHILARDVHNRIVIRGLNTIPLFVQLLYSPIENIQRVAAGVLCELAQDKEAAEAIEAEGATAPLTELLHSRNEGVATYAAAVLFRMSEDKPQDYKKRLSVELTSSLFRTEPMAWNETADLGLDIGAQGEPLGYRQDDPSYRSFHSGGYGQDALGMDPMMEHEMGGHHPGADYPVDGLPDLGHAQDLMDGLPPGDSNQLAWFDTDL
SMILES,Ki,IC50
"O=C(c1ccc(O[C@H]2CCNC2)c(N2CCCCC2)c1)N1CCC(Oc2cc(F)cc(N3CCNCC3)c2)CC1 [Compound 25, (S)-(4-(3-fluoro-5-(piperazin-1-yl)phenoxy)piperidin-1-yl)(3-(piperidin-1-yl)-4-(pyrrolidin-3-yloxy)phenyl)methanone dihydrochloride]",≤ 60 µM,≤ 60 µM
"Cn1cc(-c2cc(C(=O)N3CCC(Oc4cc(F)cc(N5CCNCC5)c4)CC3)ccc2O[C@H]2CCNC2)cn1 [Compound 13, (S)-(4-(3-fluoro-5-(piperazin-1-yl)phenoxy)piperidin-1-yl)(3-(1-methyl-1H-pyrazol-4-yl)-4-(pyrrolidin-3-yloxy)phenyl)methanone dihydrochloride]",≤ 10 µM,≤ 10 µM
"CC(C)(C)C1CCC(c2cc(C(=O)N3CCC(Oc4cc(F)cc(N5CCNCC5)c4)CC3)ccc2O[C@H]2CCNC2)CC1 (stereo in doubt) [Compound 19, cis- and trans-(S)-(3-(4-(tert-butyl)cyclohexyl)-4-(pyrrolidin-3-yloxy)phenyl)(4-(3-fluoro-5-(piperazin-1-yl)phenoxy)piperidin-1-yl)methanone dihydrochloride]",≤ 5 µM,≤ 5 µM
"CC(C)(C)C1CCC(c2cc(C(=O)N3CCC(Oc4cc(N5CCNCC5)ccc4Cl)CC3)ccc2O[C@H]2CCNC2)CC1 (stereo in doubt) [Compound 36, cis- and trans-(S)-(3-(4-(tert-butyl)cyclohexyl)-4-(pyrrolidin-3-yloxy)phenyl)(4-(2-chloro-5-(piperazin-1-yl)phenoxy)piperidin-1-yl)methanone dihydrochloride]",≤ 5 µM,≤ 5 µM
"CC(C)(C)C1CCN(c2cc(C(=O)N3CCC(Oc4cc(F)cc(N5CCNCC5)c4)CC3)ccc2O[C@H]2CCNC2)CC1 [Compound 27, (S)-(3-(4-(tert-butyl)piperidin-1-yl)-4-(pyrrolidin-3-yloxy)phenyl)(4-(3-fluoro-5-(piperazin-1-yl)phenoxy)piperidin-1-yl)methanone dihydrochloride]",≤ 30 µM,≤ 30 µM
"CC(C)(O)C1CCN(c2cc(C(=O)N3CCC(Oc4cc(F)cc(N5CCNCC5)c4)CC3)ccc2O[C@H]2CCNC2)CC1 [Compound 29, (4-(3-fluoro-5-(piperazin-1-yl)phenoxy)piperidin-1-yl)(3-(4-(2-hydroxypropan-2-yl)piperidin-1-yl)-4-(pyrrolidin-3-yloxy)phenyl)methanone]",≤ 50 µM,≤ 50 µM
"O=C(c1ccc(O[C@H]2CCNC2)c(N2CCC(C(F)(F)F)CC2)c1)N1CCC(Oc2cc(F)cc(N3CCNCC3)c2)CC1 [Compound 26, (S)-(4-(3-fluoro-5-(piperazin-1-yl)phenoxy)piperidin-1-yl)(4-(pyrrolidin-3-yloxy)-3-(4-(trifluoromethyl)piperidin-1-yl)phenyl)methanone dihydrochloride]",≤ 100 µM,≤ 100 µM
"CN(C)C(=O)c1ccc(N2CCNCC2)cc1OC1CCN(C(=O)c2ccc(O[C@H]3CCNC3)c(C3CCC(C(C)(C)C)CC3)c2)CC1 (stereo in doubt) [Compound 43, cis- and trans-(S)-2-((1-(3-(4-(tert-butyl)cyclohexyl)-4-(pyrrolidin-3-yloxy)benzoyl)piperidin-4-yl)oxy)-N,N-dimethyl-4-(piperazin-1-yl)benzamide dihydrochloride]",~81 µM,~100 µM
"COC(=O)c1ccc(N2CCNCC2)cc1OC1CCN(C(=O)c2ccc(O[C@H]3CCNC3)c(C3CCC(C(C)(C)C)CC3)c2)CC1 (stereo in doubt) [Compound 39, cis- and trans-methyl (S)-2-((1-(3-(4-(tert-butyl)cyclohexyl)-4-(pyrrolidin-3-yloxy)benzoyl)piperidin-4-yl)oxy)-4-(piperazin-1-yl)benzoate dihydrochloride]",14 ± 0.87 µM,17 ± 1.1 µM
"CC(C)(C)C1CCC(c2cc(C(=O)N3CCC(Oc4ccc(F)c(N5CCNCC5)c4)CC3)ccc2O[C@H]2CCNC2)CC1 (stereo in doubt) [Compound 33, cis- and trans-(S)-(3-(4-(tert-butyl)cyclohexyl)-4-(pyrrolidin-3-yloxy)phenyl)(4-(4-fluoro-3-(piperazin-1-yl)phenoxy)piperidin-1-yl)methanone dihydrochloride]",≤ 10 µM,≤ 10 µM
"CC(O)C(=O)N1CCC(c2cc(C(=O)N3CCC(Oc4cc(F)cc(N5CCNCC5)c4)CC3)ccc2O[C@H]2CCNC2)CC1 (stereo partly drawn) [Compound 23, 1-(4-(5-(4-(3-fluoro-5-(piperazin-1-yl)phenoxy)piperidine-1-carbonyl)-2-(((S)-pyrrolidin-3-yl)oxy)phenyl)piperidin-1-yl)-2-hydroxypropan-1-one dihydrochloride]",≤ 50 µM,≤ 50 µM
"O=C(c1ccc(O[C@H]2CCNC2)c(C2CCCCC2)c1)N1CCC(Oc2cc(F)cc(N3CCNCC3)c2)CC1 [Compound 1, (S)-(3-cyclohexyl-4-(pyrrolidin-3-yloxy)phenyl)(4-(3-fluoro-5-(piperazin-1-yl)phenoxy)piperidin-1-yl)methanone dihydrochloride]",≤ 50 µM,≤ 60 µM
"O=C(c1ccc(OC2CCNCC2)c(C2CCCCC2)c1)N1CCC(Oc2cc(F)cc(N3CCNCC3)c2)CC1 [Compound 6, (3-cyclohexyl-4-(piperidin-4-yloxy)phenyl)(4-(3-fluoro-5-(piperazin-1-yl)phenoxy)piperidin-1-yl)methanone ditrifluoroacetic acid]",> 84 µM,> 100 µM
"O=C(c1ccc(O[C@H]2CCNC2)c(-c2ccc3ccccc3c2)c1)N1CCC(Oc2cc(F)cc(N3CCNCC3)c2)CC1 [Compound 12, (S)-(4-(3-fluoro-5-(piperazin-1-yl)phenoxy)piperidin-1-yl)(3-(naphthalen-2-yl)-4-(pyrrolidin-3-yloxy)phenyl)methanone dihydrochloride]",≤ 5 µM,≤ 5 µM
"O=C(c1ccc(O[C@H]2CCNC2)c(-c2ccc(C(F)(F)F)cc2)c1)N1CCC(Oc2cc(F)cc(N3CCNCC3)c2)CC1 [Compound 9, (S)-(4-(3-fluoro-5-(piperazin-1-yl)phenoxy)piperidin-1-yl)(6-(pyrrolidin-3-yloxy)-4′-(trifluoromethyl)-[1,1′-biphenyl]-3-yl)methanone dihydrochloride]",≤ 20 µM,≤ 20 µM
CC1(O)CCN(c2cc(C(=O)N3CCC(Oc4cc(F)cc(N5CCNCC5)c4)CC3)ccc2O[C@H]2CCNC2)CC1 [Compound 28],≤ 20 µM,≤ 20 µM
"O=C(c1ccc(O[C@H]2CCNC2)c(C2CCCCC2)c1)N1CCC(Oc2cc(F)cc(N3CCC4(CC3)CNC4)c2)CC1 [Compound 3, (S)-(3-cyclohexyl-4-(pyrrolidin-3-yloxy)phenyl)(4-(3-fluoro-5-(2,7-diazaspiro[3.5]nonan-7-yl)phenoxy)piperidin-1-yl)methanone ditrifluoroacetic acid]",> 84 µM,> 100 µM
CC(C)(C)[C@H]1CC[C@H](c2cc(C(=O)N3CCC(Oc4cc(N5CCNCC5)ccc4C#N)CC3)ccc2O[C@H]2CCNC2)CC1 [Compound 45],≤ 4 µM,≤ 4 µM
"O=C(c1ccc(O[C@H]2CCNC2)c(C2CCCCC2)c1)N1CCC(Oc2cc(F)cc(N3CCC4(CCNC4)C3)c2)CC1 (stereo partly drawn) [Compound 5, (3-cyclohexyl-4-(((S)-pyrrolidin-3-yl)oxy)phenyl)(4-(3-fluoro-5-(2,7-diazaspiro[4.4]nonan-2-yl)phenoxy)piperidin-1-yl)methanone ditrifluoroacetic acid]",≤ 40 µM,≤ 40 µM
"O=C(c1ccc(O[C@H]2CCNC2)c(-c2ccc3[nH]ncc3c2)c1)N1CCC(Oc2cc(F)cc(N3CCNCC3)c2)CC1 [Compound 14, (S)-(3-(1H-indazol-5-yl)-4-(pyrrolidin-3-yloxy)phenyl)(4-(3-fluoro-5-(piperazin-1-yl)phenoxy)piperidin-1-yl)methanone dihydrochloride]",≤ 10 µM,≤ 10 µM
"O=C(c1ccc(O[C@@H]2CCNC2)c(C2CCCCC2)c1)N1CCC(Oc2cc(F)cc(N3CCNCC3)c2)CC1 [Compound 7, (R)-(3-cyclohexyl-4-(pyrrolidin-3-yloxy)phenyl)(4-(3-fluoro-5-(piperazin-1-yl)phenoxy)piperidin-1-yl)methanone dihydrochloride]",≤ 60 µM,≤ 70 µM
"CC(C)(C)C1CCC(c2cc(C(=O)N3CCC(Oc4cc(N5CCNCC5)cc(F)c4F)CC3)ccc2O[C@H]2CCNC2)CC1 (stereo in doubt) [Compound 35, cis- and trans-(S)-(3-(4-(tert-butyl)cyclohexyl)-4-(pyrrolidin-3-yloxy)phenyl)(4-(2,3-difluoro-5-(piperazin-1-yl)phenoxy)piperidin-1-yl)methanone dihydrochloride]",≤ 5 µM,≤ 5 µM
